Assay results: patent publication US20220380338A1, “CYCLOALKYL 3-OXOPIPERAZINE CARBOXAMIDES AND CYCLOHETEROALKYL 3-OXOPIPERAZINE CARBOXAMIDES AS NAV1.8 INHIBITORS” (Merck Sharp & Dohme LLC, priority 2021, published 2022)

Molecular target: T1, human NaV1.8 (Homo sapiens, UniProt Q9Y5Y9)
T1 construct: expressed in transfected cells
Experiment: Nav1.8 Qube® Assay (automated 384-well patch-clamp, inhibition of sodium current)
Assay type: cell-based
Settings: human NaV1.8 channels stably expressed in HEK 293 cells, room temperature
Experimental: Compounds were tested on human NaV1.8 and NaV1.5 channels stably expressed in human embryo kidney (HEK) 293 cells. Sodium current measurements on Qube® were conducted as follows: automated 384-well patch-clamp assays on the Qube® platform (Sophion Biosciences) were used to measure the inhibition of sodium flow through human NaV1.8 and NaV1.5 channels. Whole-cell voltage-clamp recordings were performed in QChips® (Sophion Biosciences) at room temperature. NaV1.8 current measurements on Qube® were obtained as follows: NaV1.8 currents were elicited with a 10 second 1 Hertz (Hz) pulse train from a holding potential of −90 millivolts (mV), delivered to the cells once per minute in the control condition (DMSO only) and after compound addition. The 1 hertz pulse train stimulation consisted of ten test pulses to 10 millivolt (mV) for 20 milliseconds (ms), each of which was followed by a 980 millisecond repolarization to −67 millivolts. At the end of the 10 second pulse train stimulation, a 5 second hyperpolarization step to −100 millivolt (mV) was used to recover NaV1.8 from fast inactivation. The peak currents elicited by the 1st and 10th test pulses were used to determine IC50 values for resting inhibition and inactivated state inhibition. NaV1.5 current measurements on Qube® were obtained as follows: NaV1.5 currents were elicited with a 20 second 3 Hertz pulse train in the control condition (DMSO only) and after compound addition. The pulse train consisted of sixty 20 millisecond test pulses to 0 millivolt from a holding potential of −80 millivolt (mV). The average peak currents elicited by the last 3 test pulses were used to determine IC50 values for NaV1.5 inhibition.
The following buffers were used for the Qube® recordings: External buffer for NaV1.8 Qube® recording: 150 NaCl, 2 CaCl2, 5 KCl, 1 Mg Cl2, 10 HEPES, 12 Dextrose; External buffer for Qube® NaV1.5 recording: 120 N-Methyl-D-Glucamine, 40 NaCl, 1 KCl, 2.7 CaCl2, 5 HEPES, 0.5 MgCl2; and Internal buffer for Qube® recording: 120 CsF, 30 CsCl, 10 EGTA, 5 HEPES, 5 NaF, 2 MgCl2.
For all Qube® experiments offline analysis was used to determine percent inhibition as a function of drug concentration. IC50 values were determined by fitting to the Hill equation.

T1 sequence (Q9Y5Y9 whole entry): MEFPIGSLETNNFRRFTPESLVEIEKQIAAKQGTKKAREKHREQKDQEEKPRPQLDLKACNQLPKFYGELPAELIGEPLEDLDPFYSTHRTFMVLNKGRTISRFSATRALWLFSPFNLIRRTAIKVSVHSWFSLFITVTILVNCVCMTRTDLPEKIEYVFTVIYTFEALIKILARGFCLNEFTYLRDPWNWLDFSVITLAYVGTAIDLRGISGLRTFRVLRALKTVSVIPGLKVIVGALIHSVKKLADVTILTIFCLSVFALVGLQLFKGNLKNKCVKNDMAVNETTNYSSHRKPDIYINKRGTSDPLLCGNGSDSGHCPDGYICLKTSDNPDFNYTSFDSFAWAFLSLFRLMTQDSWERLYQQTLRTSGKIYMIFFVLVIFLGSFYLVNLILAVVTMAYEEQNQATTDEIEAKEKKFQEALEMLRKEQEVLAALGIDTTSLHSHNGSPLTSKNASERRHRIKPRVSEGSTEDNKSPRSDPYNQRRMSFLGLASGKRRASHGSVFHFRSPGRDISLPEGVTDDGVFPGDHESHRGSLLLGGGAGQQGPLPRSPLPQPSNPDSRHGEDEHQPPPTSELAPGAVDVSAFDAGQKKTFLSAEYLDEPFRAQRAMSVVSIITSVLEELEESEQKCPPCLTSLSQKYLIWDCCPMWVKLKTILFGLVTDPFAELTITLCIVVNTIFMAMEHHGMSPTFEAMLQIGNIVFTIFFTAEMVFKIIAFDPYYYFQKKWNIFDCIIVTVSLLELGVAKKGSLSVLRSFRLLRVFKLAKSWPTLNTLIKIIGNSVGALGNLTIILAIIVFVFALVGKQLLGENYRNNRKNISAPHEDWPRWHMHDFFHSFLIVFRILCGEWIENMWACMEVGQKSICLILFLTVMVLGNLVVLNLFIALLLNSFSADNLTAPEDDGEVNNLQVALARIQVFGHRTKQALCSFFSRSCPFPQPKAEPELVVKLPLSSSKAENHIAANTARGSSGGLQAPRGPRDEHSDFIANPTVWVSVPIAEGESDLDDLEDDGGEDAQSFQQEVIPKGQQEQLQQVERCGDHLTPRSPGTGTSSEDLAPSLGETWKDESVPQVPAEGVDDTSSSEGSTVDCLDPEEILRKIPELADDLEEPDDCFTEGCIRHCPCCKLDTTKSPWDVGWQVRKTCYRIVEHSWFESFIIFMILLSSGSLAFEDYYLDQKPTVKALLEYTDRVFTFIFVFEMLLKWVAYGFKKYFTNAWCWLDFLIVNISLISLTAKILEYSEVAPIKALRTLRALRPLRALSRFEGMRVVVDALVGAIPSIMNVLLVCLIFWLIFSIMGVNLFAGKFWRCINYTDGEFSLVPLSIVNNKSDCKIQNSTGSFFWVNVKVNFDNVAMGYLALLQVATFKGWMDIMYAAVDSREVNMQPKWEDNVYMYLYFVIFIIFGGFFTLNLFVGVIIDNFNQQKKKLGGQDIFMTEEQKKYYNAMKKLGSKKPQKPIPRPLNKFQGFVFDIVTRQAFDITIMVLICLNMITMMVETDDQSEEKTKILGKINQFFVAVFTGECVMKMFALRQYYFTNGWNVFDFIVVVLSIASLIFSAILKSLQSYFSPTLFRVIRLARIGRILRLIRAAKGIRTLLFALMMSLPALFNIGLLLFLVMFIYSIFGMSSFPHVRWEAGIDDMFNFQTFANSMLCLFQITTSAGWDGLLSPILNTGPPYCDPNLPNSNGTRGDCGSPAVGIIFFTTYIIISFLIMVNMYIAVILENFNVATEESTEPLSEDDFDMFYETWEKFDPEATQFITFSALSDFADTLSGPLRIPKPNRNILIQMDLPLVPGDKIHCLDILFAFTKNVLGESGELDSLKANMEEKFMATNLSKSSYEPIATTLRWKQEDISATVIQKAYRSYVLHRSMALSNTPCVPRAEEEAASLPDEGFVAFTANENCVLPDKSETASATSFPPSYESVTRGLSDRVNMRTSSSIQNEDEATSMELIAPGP

Compound	IC50 [nM]
C[C@@H]1C(=O)NCCN1C(=O)NC(c1ccc(F)c(Cl)c1)C1CCC(F)(F)CC1 (single isomer, unassigned) [Example 14B, (2R)-N-((S or R)-(3-chloro-4-fluoro-phenyl)(4,4-difluoro-cyclohexyl)methyl)-2-methyl-3-oxo-piperazine-1-carboxamide]	359
O=C1CN(C(=O)NC(c2ccc(F)c(Cl)c2)C2CC3CCC(C2)C3(F)F)CCN1 (single isomer, unassigned) [Example 2B, N-((S or R)-(3-chloro-4-fluoro-phenyl)(8,8-difluroo-bicyclo[3.2.1]octan-3-yl)methyl)-3-oxopiperazine-1-carboxamide]	410
C[C@@H]1C(=O)NCCN1C(=O)NC(c1ccc(F)c(Cl)c1)C1CC(OCC(F)(F)F)C1 (single isomer, unassigned) [Example 44D, (2R)—N—((S or R)-(3-chloro-4-fluorophenyl)(trans-3-(2,2,2-trifluoroethoxy)cyclobutyl)methyl)-2-methyl-3-oxopiperazine-1-carboxamide]	22.7
C[C@@H]1C(=O)NCCN1C(=O)NC(c1ccc(F)c(Cl)c1F)C1CC(C2CC2)C1 (single isomer, unassigned) [Example 21B, (2R)-N-((R or S)-(3-chloro-2,4-difluoro-phenyl)(cis or trans-3-cyclopropylcyclobutyl)methyl)-2-methyl-3-oxopiperazine-1-carboxamide]	2.87
C[C@@H]1C(=O)NCCN1C(=O)NC(c1ccc(F)c(Cl)c1F)C1COc2ccccc2C1 (single isomer, unassigned) [Example 62B, (R)—N—((R or S)-(3-chloro-2,4-difluorophenyl)((S or R)-chroman-3-yl)methyl)-2-methyl-3-oxopiperazine-1-carboxamide]	358
C[C@@H]1C(=O)NCCN1C(=O)NC(c1ccc(F)c(Cl)c1F)C1CCC(F)(F)CC1 (single isomer, unassigned) [Example 13B, (2R)-N-((S or R)-(3-chloro-2,4-difluoro-phenyl)(4,4-difluoro-cyclohexyl)methyl)-2-methyl-3-oxo-piperazine-1-carboxamide]	726
C[C@@H]1C(=O)NCCN1C(=O)NC(c1ccc(F)c(Cl)c1F)C1CC(OC(F)F)C1 (single isomer, unassigned) [Example 39B, (2R)-N-((R or S)-(3-chloro-2,4-difluoro-phenyl)(cis-3-(difluoro-methoxy)cyclobutyl)-methyl)-2-methyl-3-oxopiperazine-1-carboxamide]	916
Cc1cc(C(NC(=O)N2CCNC(=O)[C@H]2C)C2CCC(C(F)(F)F)CC2)ccc1F (single isomer, unassigned) [Example 36B]	74.6
C[C@@H]1C(=O)NCCN1C(=O)NC(c1ccc(F)c(Cl)c1F)C1CC2(C1)CC2(F)F (single isomer, unassigned) [Example 22D, (2R)-N-((So or R)-(3-chloro-2,4-difluoro-phenyl)(cis or trans-1,1-difluoro-spiro[2.3]-hexan-5-yl)methyl)-2-methyl-3-oxopiperazine-1-carboxamide]	85.2
C[C@@H]1C(=O)NCCN1C(=O)NC(c1ccc(F)c(Cl)c1)C12CC(C(F)(F)F)(C1)C2 (single isomer, unassigned) [Example 35A, (2R)-N-((R or S)-(3-chloro-4-fluoro-phenyl)(3-(trifluoro-methyl)bicyclo[1.1.1]pen-tan-1-yl)methyl)-2-methyl-3-oxopiperazine-1-carboxamide]	6.08
C[C@@H]1C(=O)NCCN1C(=O)NC(c1ccc(Cl)c(C(F)F)c1)C1CCC(C(F)(F)F)CC1 (single isomer, unassigned) [Example 37A, (2R)-N-((R or S)-(4-chloro-3-(difluoro-methyl)phenyl)(cis-4-(trifluoromethyl)cyclohexyl)methyl)-2-methyl-3-oxopiperazine-1-carboxamide]	108
C[C@@H]1C(=O)NCCN1C(=O)NC(c1ccc(F)c(Cl)c1F)C1CCC(C(F)(F)F)C1 (single isomer, unassigned) [Example 58B, (2R)—N—((R or S)-(3-chloro-2,4-difluorophenyl)(cis-3-(trifluoromethyl)cyclopentyl)methyl)-2-methyl-3-oxopiperazine-1-carboxamide]	5.65
C[C@@H]1C(=O)NCCN1C(=O)NC(c1ccc(F)c(Cl)c1)C1CC(OC(F)F)C1 (single isomer, unassigned) [Example 38A, (2R)-N-((R or S)-(3-chloro-4-fluoro-phenyl)-(trans-3-(difluoro-methoxy)cyclobutyl)-methyl)-2-methyl-3-oxopiperazine-1-carboxamide]	146
O=C1CN(C(=O)NC(c2ccc(F)c(Cl)c2)C2CCN(CC(F)(F)F)CC2)CCN1 (single isomer, unassigned) [Example 17A, N-((R or S)-(3-chloro-4-flurophenyl)(1-(2,2,2-trifluoroethyl)piperidin-4-yl)methyl)-3-oxopiperazine-1-carboxamide]	1630
O=C1CN(C(=O)NC(c2ccc(F)c(C(F)(F)F)c2)[C@H]2C[C@H](C(F)(F)F)C2)CCN1 (single isomer, unassigned) [Example 52B, N-((S or R)-(4-fluoro-3-(trifluoromethyl)phenyl) (trans-3-(trifluoro-methyl)cyclobutyl)-methyl)-3-oxo-piperazine-1-carboxamide]	11.8
O=C1CN(C(=O)NC(c2ccc(F)c(Cl)c2)C23CC(C(F)(F)F)(C2)C3)CCN1 (single isomer, unassigned) [Example 34B, N-((S or R)-(3-chloro-4-fluorophenyl)(3-(trifluoromethyl)bicyclo [1.1.1]pentan-1-yl)methyl)-3-oxopiperazine-1-carboxamide]	47.1
COC1CC(C(NC(=O)N2CCNC(=O)[C@H]2C)c2ccc(F)c(Cl)c2F)C1 (single isomer, unassigned) [Example 40B, (2R)-N-((R or S)-(3-chloro-2,4-difluoro-phenyl)(cis-3-methoxy-cyclobutyl)methyl)-2-methyl-3-oxopiperazine-1-carboxamide]	14500
C[C@@H]1C(=O)NCCN1C(=O)N[C@@H](c1ccc(F)c(Cl)c1F)[C@H]1C[C@H](C(F)(F)F)C1 [Example 20B, (R)—N—((R)-(3-chloro-2,4-difluorophenyl)(trans-3-(trifluoromethyl)cyclobutyl)methyl)-2-methyl-3-oxopiperazine-1-carboxamide]	191
CC(N1CCC(C(NC(=O)N2CCNC(=O)[C@H]2C)c2ccc(F)c(Cl)c2)CC1)C(F)(F)F (single isomer, unassigned) [Example 18B]	6.87
COC1CC(C(NC(=O)N2CCNC(=O)[C@H]2C)c2ccc(F)c(Cl)c2F)C1 (single isomer, unassigned) [Example 40D, (2R)-N-((S or R)-(3-chloro-2,4-difluoro-phenyl)(trans-3-methoxycyclobutyl)-methyl)-2-methyl-3-oxopiperazine-1-carboxamide]	108
C[C@@H]1C(=O)NCCN1C(=O)NC(c1ccc(F)c(Cl)c1F)C1CC12CC2 (single isomer, unassigned) [Example 41C, (2R)-N-((R or S)-(3-chloro-2,4-difluoro-phenyl)(S or R)-spiro[2.2]pentan-1-yl)methyl)-2-methyl-3-oxopiperazine-1-carboxamide]	143
